Test results as given in the supplement of paper PMC13380429.
± gives the standard deviation of the averaged measurements.

Key:
Settings in all cases: 72 h
Caco-2 [1] = assay: cell viability relative to DMSO; higher = less toxic
Calu-3 [2] = assay: as above
HepG2 [3] = assay: as above
U2OS [4] = assay: as above
Vero E6 [5] = assay: as above
Caco-2 [6] = assay: relative viability EC50 (midpoint between 100% and the lowest measured viability); higher = less toxic
Calu-3 [7] = assay: as above
HepG2 [8] = assay: as above
U2OS [9] = assay: as above
Vero E6 [10] = assay: as above
Caco-2 [11] = assay: drug sensitivity score (DSS) for viability; higher = more toxic; extreme values may be limits of the assay
Calu-3 [12] = assay: as above
HepG2 [13] = assay: as above
U2OS [14] = assay: as above
Vero E6 [15] = assay: as above

| Structure (SMILES) | cell viability (Caco-2 [1]; 1 nM) [%] | cell viability (Caco-2 [1]; 10 nM) [%] | cell viability (Caco-2 [1]; 100 nM) [%] | cell viability (Caco-2 [1]; 1000 nM) [%] | cell viability (Caco-2 [1]; 10000 nM) [%] | cell viability (Calu-3 [2]; 1 nM) [%] | cell viability (Calu-3 [2]; 10 nM) [%] | cell viability (Calu-3 [2]; 100 nM) [%] | cell viability (Calu-3 [2]; 1000 nM) [%] | cell viability (Calu-3 [2]; 10000 nM) [%] | cell viability (HepG2 [3]; 1 nM) [%] | cell viability (HepG2 [3]; 10 nM) [%] | cell viability (HepG2 [3]; 100 nM) [%] | cell viability (HepG2 [3]; 1000 nM) [%] | cell viability (HepG2 [3]; 10000 nM) [%] | cell viability (U2OS [4]; 1 nM) [%] | cell viability (U2OS [4]; 10 nM) [%] | cell viability (U2OS [4]; 100 nM) [%] | cell viability (U2OS [4]; 1000 nM) [%] | cell viability (U2OS [4]; 10000 nM) [%] | cell viability (Vero E6 [5]; 1 nM) [%] | cell viability (Vero E6 [5]; 10 nM) [%] | cell viability (Vero E6 [5]; 100 nM) [%] | cell viability (Vero E6 [5]; 1000 nM) [%] | cell viability (Vero E6 [5]; 10000 nM) [%] | relative viability EC50 (Caco-2 [6]) [µM] | relative viability EC50 (Calu-3 [7]) [µM] | relative viability EC50 (HepG2 [8]) [µM] | relative viability EC50 (U2OS [9]) [µM] | relative viability EC50 (Vero E6 [10]) [µM] | drug sensitivity score (Caco-2 [11]) | drug sensitivity score (Calu-3 [12]) | drug sensitivity score (HepG2 [13]) | drug sensitivity score (U2OS [14]) | drug sensitivity score (Vero E6 [15]) |
| --- | --- | --- | --- | --- | --- | --- | --- | --- | --- | --- | --- | --- | --- | --- | --- | --- | --- | --- | --- | --- | --- | --- | --- | --- | --- | --- | --- | --- | --- | --- | --- | --- | --- | --- | --- |
| CC[C@@H](C)c1ccc(NC(=O)Cn2cnc3c2c(=O)n(C)c(=O)n3C)cc1 (racemic) | 98.5 | 90.1 | 89.8 | 97.3 | 92.5 | 99.4 | 100 | 98.6 | 99 | 95.6 | 95.9 | 100 | 96.6 | 100 | 93.4 | 98.6 | 97.1 | 98.3 | 96.9 | 98.6 | 96 | 98.3 | 92.6 | 94 | 106 | > 10 | > 10 | > 10 | > 10 | > 10 | 0 | 0 | 0 | 0 | 0 |
| CC(=C(CCO)SSCC1CCCO1)N(C=O)Cc1cnc(C)nc1N (stereo in doubt) [fursultiamine] | 112 | 91.6 | 97.6 | 106 | 96 | 98.5 | 101 | 108 | 110 | 114 | 93.3 | 87.5 | 90.2 | 110 | 97.8 | 101 | 102 | 98.7 | 97.8 | 98.2 | 106 | 95.5 | 99.2 | 97.3 | 102 | > 10 | > 10 | > 10 | > 10 | > 10 | 0 | 0 | 0 | 0 | 0 |
| C[C@H]1NC(=O)NC1=O [5-methylhydantoin-(D)] | 97.5 ± 3.3 | 94.4 ± 0.14 | 104 ± 2.3 | 95.3 ± 5.5 | 101 ± 2.6 | 95.5 ± 5.9 | 99.6 ± 5 | 94.5 ± 3.2 | 102 ± 3 | 101 ± 6.9 | 93 ± 4.9 | 100 ± 0.64 | 93.3 ± 5.9 | 98.1 ± 8.6 | 106 ± 2.8 | 97.85 ± 0.49 | 100 ± 5 | 98.8 ± 5.1 | 98.2 ± 2.3 | 100 ± 2.4 | 97.1 ± 7.1 | 102 ± 4.5 | 96.4 ± 0.71 | 99.4 ± 0.57 | 100 ± 8 | > 10 | > 10 | > 10 | > 10 | > 10 | 0 | 0 | 0 | 0 | 0 |
